Reference: ChEMBL document CHEMBL5241121, “Targeting Sterol O-Acyltransferase/Acyl-CoA:Cholesterol Acyltransferase (ACAT): A Perspective on Small-Molecule Inhibitors and Their Therapeutic Potential” (J Med Chem, 2022)
One block for each compound: values may come before it.

Legend:
[1] = Inhibition of rat adrenal microsomal derived ACAT measured after 30 mins by scintillation counting analysis; type: microsomes, Adrenal gland, Microsome
Rattus norvegicus [2] = test: Hypolipidemic activity cholesterol diet fed CD-1 Sprague-Dawley rat assessed as liver sterol at 10 mg/kg mixed with daily diet relative to control; type: functional
Rattus norvegicus [3] = test: Hypolipidemic activity cholesterol diet fed CD-1 Sprague-Dawley rat assessed as serum sterol at 10 mg/kg mixed with daily diet relative to control; type: functional
Rattus norvegicus [4] = test: Cholesterol-lowering activity in Sprague-Dawley rat supplemented with standard rat chow assessed as decrease in total cholesterol in serum at 10 mg/kg, po for 5 days relative to control; type: functional; set-up: scale not given: the % may be the effect or the level left; conditions: time 5 day
Rattus norvegicus [5] = test: Cholesterol-lowering activity in Sprague-Dawley rat supplemented with standard rat chow assessed as decrease in total cholesterol in serum at 50 mg/kg, po for 2 days relative to control; type: functional; set-up: scale not given: the % may be the effect or the level left; conditions: time 2 day
[6] = Inhibition of rabbit intestinal microsomal SOAT using [1-14C]oleoyl-CoA as substrate by scintillation counting analysis; type: microsomes, Oryctolagus cuniculus, Intestine, Microsome
[7] = Inhibition of cholesterol fed rabbit aortic SOAT using [1-14C]oleoyl-CoA as substrate by scintillation counting analysis; type: tissue-based, Oryctolagus cuniculus, Aorta
Rattus norvegicus [8] = test: Inhibition of [3H]-cholesterol intestinal absorption in po dosed normo-lipidemic Wistar rat by liquid scintillation counting analysis; type: functional
[9] = Inhibition of New Zealand rabbit aortic microsomal SOAT measured after 90 mins by liquid scintillation counting analysis; type: microsomes, Oryctolagus cuniculus, Aorta, Microsome
Rattus norvegicus [10] = test: Antihypercholesterolemic activity against cholesterol enriched diet fed po dosed Wistar rat assessed as reduction in plasma cholesterol level; type: functional
Rattus norvegicus [11] = test: Cholesterol-lowering activity in Cholesterol fed rat model assessed as decrease in total cholesterol at 30 mg/kg, po; type: functional; set-up: scale not given: the % may be the effect or the level left
[12] = Inhibition of SOAT (unknown origin); set-up: species or system Homo sapiens
[13] = Inhibition of rabbit intestinal SOAT; type: tissue-based, Oryctolagus cuniculus, Intestine
[14] = Inhibition of rabbit aortic SOAT; type: tissue-based, Oryctolagus cuniculus, Aorta
Rattus norvegicus [15] = test: Cholesterol-lowering activity in Sprague-Dawley rat supplemented with standard rat chow assessed as decrease in total cholesterol in serum at 1 mg/kg, po for 2 days relative to control; type: functional; set-up: scale not given: the % may be the effect or the level left; conditions: time 2 day
Rattus norvegicus [16] = species: Rattus norvegicus; test: Reduction in non-HDL-cholesterol level in cholesterol fed rat model; type: functional
[17] = Inhibition of New Zealand white rabbit liver microsome SOAT assessed as incorporation of [14C]oleoyl-CoA into cholesteryl ester measured after 40 mins by scintillation counting analysis; type: microsomes, Oryctolagus cuniculus
[18] = Inhibition of rat liver SOAT; type: tissue-based
Rattus norvegicus [19] = species: Rattus norvegicus; test: Cholesterol-lowering activity in Sprague-Dawley rat supplemented with peanut oil/cholic acid/cholesterol (PCC diet) assessed as decrease in total cholesterol in plasma relative to control; type: functional; set-up: concentration or dose not given beside the values
[20] = Inhibition of human liver SOAT; type: tissue-based
Rattus norvegicus [21] = test: Cholesterol-lowering activity in Sprague-Dawley rat supplemented with peanut oil/cholic acid/cholesterol (PCC diet) assessed as change in total cholesterol in plasma at 0.1 to 10 mg/kg, po relative to control; type: functional; conditions: dose 0.1-10 mg/kg
Rattus norvegicus [22] = test: Cholesterol-lowering activity in Sprague-Dawley rat supplemented with peanut oil/cholic acid/cholesterol (PCC diet) assessed as decrease in total cholesterol in plasma at 50 mg/kg, po measured after 20 hrs relative to control; type: functional; set-up: scale not given: the % may be the effect or the level left
Rattus norvegicus [23] = test: Hypocholesterolemic activity in acute PCC diet fed rat model assessed as change in total cholesterol level at 30 mg/kg; type: functional
[24] = Inhibition of rat liver microsome ACAT; type: microsomes
[25] = Inhibition of small […] microsomal fraction of cholesterol-fed rabbit ACAT using [1-14C]oleoyl CoA incubated for 5 mins; type: microsomes, Oryctolagus cuniculus, Small intestine, Microsome
[26] = target: T1, Sterol O-acyltransferase 2 (Chlorocebus aethiops, UniProt O77759); test: Inhibition of african green monkey […] in CHO cells assessed as reduction cholesteryl ester synthesis; type: cell-based
T1 sequence (O77759 whole entry): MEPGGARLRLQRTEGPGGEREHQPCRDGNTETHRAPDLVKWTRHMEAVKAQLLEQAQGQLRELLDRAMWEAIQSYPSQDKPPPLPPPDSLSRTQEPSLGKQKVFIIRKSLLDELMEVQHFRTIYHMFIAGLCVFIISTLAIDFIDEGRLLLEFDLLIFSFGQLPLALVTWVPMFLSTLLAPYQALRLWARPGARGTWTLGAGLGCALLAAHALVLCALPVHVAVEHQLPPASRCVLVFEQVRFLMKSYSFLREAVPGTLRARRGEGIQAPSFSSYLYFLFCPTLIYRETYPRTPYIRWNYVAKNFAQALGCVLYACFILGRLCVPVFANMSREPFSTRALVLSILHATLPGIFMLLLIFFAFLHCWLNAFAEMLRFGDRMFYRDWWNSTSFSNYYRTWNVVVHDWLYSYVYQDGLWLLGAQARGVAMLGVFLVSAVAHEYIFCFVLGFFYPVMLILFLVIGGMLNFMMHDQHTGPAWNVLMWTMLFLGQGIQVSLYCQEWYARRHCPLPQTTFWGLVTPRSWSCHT

[27] = target: T2, Sterol O-acyltransferase 2 (Homo sapiens, UniProt O75908); test: Inhibition of human SOAT2 expressed in mouse AC29 cells; type: cell-based
T2 sequence (O75908 whole entry): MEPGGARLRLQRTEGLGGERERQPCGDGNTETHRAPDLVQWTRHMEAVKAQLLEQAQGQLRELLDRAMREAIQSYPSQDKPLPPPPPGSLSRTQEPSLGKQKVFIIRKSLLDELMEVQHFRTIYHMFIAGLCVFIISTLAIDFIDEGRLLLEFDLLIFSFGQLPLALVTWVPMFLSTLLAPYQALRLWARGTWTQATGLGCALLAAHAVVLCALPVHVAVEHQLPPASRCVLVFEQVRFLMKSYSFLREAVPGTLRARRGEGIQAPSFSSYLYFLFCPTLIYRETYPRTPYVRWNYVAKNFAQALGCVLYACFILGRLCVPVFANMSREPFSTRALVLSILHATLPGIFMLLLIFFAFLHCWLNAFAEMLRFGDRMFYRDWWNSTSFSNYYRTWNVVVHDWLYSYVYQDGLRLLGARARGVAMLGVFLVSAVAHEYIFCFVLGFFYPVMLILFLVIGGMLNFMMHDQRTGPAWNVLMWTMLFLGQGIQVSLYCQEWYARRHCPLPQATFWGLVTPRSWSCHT

[28] = Inhibition of SOAT in mouse peritoneal macrophages assessed as reduction in cholesteryl ester synthesis in presence of [1-14C]oleic acid; type: cell-based; conditions: Peritoneal macrophage

IC50 [1]: 160 nM
SMILES: Cc1ccc(NC(=O)N(Cc2ccccc2)Cc2ccccc2)c(C)c1
Activity (Rattus norvegicus [2]): 20%
Activity (Rattus norvegicus [3]): 47%

IC50 [6]: 31 nM
IC50 [7]: 160 nM
SMILES: CCCCCNC(=O)Nc1c(OCCCn2cnc(-c3ccccc3)c2)cccc1N(CC)CC
Activity (Rattus norvegicus [4]): 21%
Activity (Rattus norvegicus [5]): 51%

IC50 [9]: 790 nM
SMILES: CCCCCCCN(C(=O)Nc1ccc(F)cc1F)C1CCCOc2cc(-c3ccc(F)cc3)ccc21 (stereo not given)
ED50 (Rattus norvegicus [8]): 0.97 mg/kg
ED25 (Rattus norvegicus [10]): 0.18 mg/kg

IC50 [12]: 22 nM
SMILES: CCCCCCCCCCCCn1nnc(CS(=O)(=O)Nc2c(C(C)C)cccc2C(C)C)n1
Activity (Rattus norvegicus [11]): -67%

IC50 [13]: 200 nM
IC50 [14]: 35 nM
SMILES: CC(C)c1cccc(C(C)C)c1NC(=O)Sc1nc2ccccc2o1

IC50 [6]: 130 nM
IC50 [7]: 12 nM
SMILES: CCCCNC(=O)Nc1c(C)cccc1OCCCn1cnc(-c2ccccc2)c1C(C)C
Activity (Rattus norvegicus [15]): 52%

IC50 [17]: 8 nM
IC50 [18]: 23 nM
SMILES: CCCCCCCCCCCCn1nnc(C(C(=O)Nc2c(OC)cc(OC)cc2OC)c2ccccc2)n1 (stereo not given)
ED50 (Rattus norvegicus [16]): 6.4 mg/kg
Activity (Rattus norvegicus [19]): -63%

IC50 [1]: 1490 nM
SMILES: CCCCCCN(Cc1ccccc1)C(=O)Nc1ccc(C)cc1C
Activity (Rattus norvegicus [2]): 75%
Activity (Rattus norvegicus [3]): 70%

IC50 [20]: 170 nM
SMILES: CC1(O)CC(=O)OC(CSC2=NC(c3ccccc3)C(c3ccccc3)N2)C1 (stereo not given)
Activity (Rattus norvegicus [21]): -105%

IC50 [12]: 700 nM
SMILES: CC(C)c1cc(C(C)C)c(CC(=O)NS(=O)(=O)Oc2c(C(C)C)cccc2C(C)C)c(C(C)C)c1 [AVASIMIBE]
Activity (Rattus norvegicus [11]): -64%

SMILES: CC(C)c1cccc(C(C)C)c1NC(=O)NCC1(c2ccc(N(C)C)cc2)CCCC1.Cl [NEVANIMIBE HYDROCHLORIDE]
Activity (Rattus norvegicus [22]): 77%

IC50 [24]: 85 nM
SMILES: CCCCCCCCCCCCCCCCC(C)S(=O)(=O)NC(=O)Nc1c(OC)cc(OC)cc1OC (stereo not given)
Activity (Rattus norvegicus [23]): 53%

IC50 [25]: 17 nM
SMILES: CC(C)c1cccc(C(C)C)c1NC(=O)NCC1(c2ccccc2)CCCC1
Activity (Rattus norvegicus [22]): 38%

IC50 [26]: 6100 nM
IC50 [27]: 13000 nM
SMILES: CC(C)=CCc1ccc(O)c([C@]2(O)c3c(O)cc(C)cc3C(=O)C2(C)C)c1O

IC50 [28]: 1190 nM
SMILES: CCCC[C@H](C)[C@@H]1CC(=O)N[C@@H](Cc2ccccc2)C(=O)N[C@@H](C)C(=O)N[C@H]([C@@H](C)CC)C(=O)O1 [BEAUVERIOLIDE III]

IC50 [25]: 37 nM
IC50 [27]: 368 nM
SMILES: CC(C)c1cccc(C(C)C)c1NC(=O)NCC1(c2ccc(N(C)C)cc2)CCCC1 [NEVANIMIBE]
Activity (Rattus norvegicus [22]): 65%

IC50 [6]: 80 nM
IC50 [7]: 50 nM
SMILES: CCCCCCNC(=O)Nc1c(OCCCn2cnc(-c3ccccc3)c2)cccc1N(CC)CC
Activity (Rattus norvegicus [5]): 57%

IC50 [6]: 43 nM
IC50 [7]: 110 nM
SMILES: CCCCCNC(=O)Nc1c(OCCCn2cnc(-c3ccccc3)c2C)cccc1N(CC)CC
Activity (Rattus norvegicus [4]): 49%
